Earlier results as cited in patent US20240226204A9 (priority 2021, published 2024).

System: COVID-19
Conditions: human, in vivo

Row | Molecule | mortality | efficacy / antiviral effect in clinical use against COVID-19
1 | C[C@@H]1C[C@H]2[C@@H]3CCC4=CC(=O)C=C[C@]4(C)[C@@]3(F)[C@@H](O)C[C@]2(C)[C@@]1(O)C(=O)CO [dexamethasone] | increase in mortality | –
2 | CCN(CCO)CCCC(C)Nc1ccnc2cc(Cl)ccc12 (stereo not drawn) [hydroxychloroquine] | – | lack of efficacy
3 | lopinavir-ritonavir | – | lack of efficacy
